In US20020156016A1, “Control of cell growth by altering cell membrane potentials” (priority 2001, published 2002):

Experiments:
Assay type in all cases: cell-based, human
[1] = system: Chang cells transfected with GABAA-β3 receptor cDNA; test: Proliferative activity after varying concentrations of muscimol; conditions: muscimol 0-100 μM, FIG. 12
Experimental: (§1) [^3H]-thymidine incorporation was determined as described by Luk (Luk, 1986, Gastroenterology 90: 1261-1267). 5×10^4 cells were seeded into 6-well plates. After two days of culture to allow attachment to plate bottoms, cells were incubated with 1 μCi [^3H]-thymidine for 2 hours at 37° C. [^3H]-thymidine incorporated into cellular DNA was precipitated by the addition of 10% trichloroacetic acid (TCA) for 15 min at room temperature. Cells were rinsed and resolublilized in a 0.3 M NaOH and 1% SDS solution then assayed for radioactivity in a […].
(§2) Bromodeoxyuridine (BrdUrd) incorporation was determined by seeding 5×10^3 cells into 96 well plates. At subconfluence, cells were incubated with serum-free DMEM. Twenty-four hours later, the media was switched to DMEM containing BrdUrd for 2 hours. Incoroporation of BrdUrd was determined using a 5-Bromo-2′-deoxyuridine Labeling and Detection Kit III (Roche Diagnostics, Mississauga, Ontario, Canada) according to the manufacturer's instructions. Absorbance at 450-490 nm was measured using a microplate reader (Molecular Devices, Menlo Park, Calif., USA).
(§3) WST-1 determinations were performed using a commercially available kit (Boehringer Mannheim Canada, Laval, Quebec, Canada). Briefly, 1×10^4 cells were seeded into 96 well plates. After two days of culture one tenth the volume of 4-[3-(4-lodophenyl)-2-(4-nitrophenyl)-2H-5-tetrazolio]-1,3-benzene disulfonate (WST-1, Boehringer Mannheim, Laval, PQ) was added to each well, and the cells incubated with WST-1 for 4 h in 37° C. Asborbance at A405-A650 was determined by a microplate reader (Molecular Devices, Menlo Park, Calif., USA).
(§4) To determine whether the addition of muscimol and/or other GABAA receptor agonists might have therapeutic value in inhibiting the growth of malignant hepatocytes with restored GABAAβ3 receptor mRNA expression, proliferative activity was documented in Chang cells transfected with GABAA-β3 receptor cDNA or vector alone following exposure to varying concentrations of muscimol (0-100 μM).

[2] = system: Chang cells transfected with vector alone; test: as above; conditions: muscimol 0-100 μM, FIG. 12
Experimental: as §1, §2, §3, §4

[3] = system: Chang cells transfected with GABAA-β3 receptor cDNA; test: Cell PD determination (TMRE fluorescence) after muscimol exposure
Experimental: (§5) A Leica DM IRB fluorescence microscope equipped with a PDMI-2 Open perfusion Micro-incubator (Harvard Apparatus, Saint-Laurent, Quebec) was used to measure PDs as described by Loew (Loew, 1998, Cell Biology: A Laboratory Handbook). The incubating temperature was 37° C. Twenty four hour cultured healthy, human hepatocytes and malignant hepatocytes were washed with NB buffer (130 mM NaCl, 5.5 mM KCl, 1.8 mM CaCl2, 1.0 mM MgCl2, 25 mM glucose and 20 mM HEPES buffer adjusted to pH 7.4) three times and then incubated for 10 min with NTB buffer (100 nM tetramethylrhodamine ethyl ester (TMRE) in NB buffer). After obtaining photographs of the fluorescent cells, they were washed with KB buffer (130 mM KCl, 5.5 mM NaCl, 1.8 mM CaCl2, 1.0 mM MgCl2, 25 mM glucose and 20 mM HEPES buffer adjusted to pH 7.4) three times and incubated for 10 min with DTB buffer (100 nM TMRE and 1 μM valinomysin in KB buffer). Photographs were then obtained of the depolarized cells. Fluorescence within the cell was designated intracellular fluorescence (Fin) and fluorescence outside the cell as extracellular fluorescence (Fout). To calculate PDs the Nernst equation was used.
(§6) PD=−(RT/ZF)λn[Fin dFout)/(FoutdFin),
(§7) where PD is membrane potential, Z is the charge of the permeable ion, F is Faraday's constant, R is the ideal gas constant and T is the absolute temperature.
(§8) To determine whether further hyperpolarization could be achieved in Chang cells transfected with GABAA-β3 receptor cDNA, these cells together with non-transfected Chang cells and Chang cells transfected with vector alone were exposed to 50 μM muscimol, a specific GABAA receptor agonist for 48 hours.

[4] = system: Chang cells transfected with vector alone; test: as above; conditions: 50 μM muscimol, 48 hours
Experimental: as §5, §6, §7, §8

[5] = system: Chang cells; test: Cell PD determination (TMRE fluorescence); conditions: non-transfected Chang cells, 50 μM muscimol, 48 hours
Experimental: as §5, §6
where PD is membrane potential, Z is the charge of the permeable ion, F is Faraday's constant, R is the ideal gas constant and T is the absolute temperature. […]

`NCc1cc(=O)[nH]o1` [muscimol] was tested, and the proliferative activity [1] was “dose dependent decrease”, the proliferative activity ([1]; listed as Muscimol) was “significantly decreased in a dose dependent fashion” and the proliferative activity [2] was “remained essentially unaltered”. The “increase of PDs after muscimol” value ([3]; 50 μM muscimol, 48 hours) was “approximately 40%”, the PD post-muscimol ([3]; 50 μM muscimol, 48 hours, pre-muscimol −12.0±0.9) was −16.4±0.8 and the “effect on membrane potentials (PDs), in words” value ([3]; Muscimol 50 μM, FIG. 11) was “became more polarized”. For the same molecule, the “effect on PDs” value [4] was “little or no effect” and the “effect on PDs” value [5] was “little or no effect”.
